According to ChEMBL document CHEMBL3507680, “University of Dundee, Gates Library screen for HepG2 cell viability”:

Assay: Human HepG2 cell viability assay in 384 well format
Format: toxicity, cell-based
Parameters: dose 125 nL, time 70.5 hour; cytotoxicity at 70.5 h: concentration not given beside the values
Settings: HepG2 cells, read-out: Inhibition

## O=C1CCCc2cc(S(=O)(=O)NCc3ccccn3)ccc2N1
  cytotoxicity at 70.5 h: -11%

## CCCn1ncc(C(=O)NC2CCN(CC3CCCO3)CC2)c1C (configuration not stated)
  cytotoxicity at 70.5 h: 25.6%

## CNc1cc(-c2cccc(CN)c2)c2cc[nH]c2n1
  cytotoxicity at 70.5 h: -13.9%

## CCCc1cnc(C)nc1N1CCC(Cn2cc(CO)nn2)CC1
  cytotoxicity at 70.5 h: -3.5%

## O=C(NCc1ccccn1)C1CN(c2nc3ccccc3s2)CCN1 (configuration not stated)
  cytotoxicity at 70.5 h: -8.77%

## COc1coc(CN2CCCC(CCc3c(F)cccc3F)C2)cc1=O (configuration not stated)
  cytotoxicity at 70.5 h: -2.32%

## COc1ccc(Oc2nccc3occc23)cc1CN1CCCC1
  cytotoxicity at 70.5 h: -6.39%

## Cc1cc2nc(C(C)C)cc(N3CCSCC3)n2n1
  cytotoxicity at 70.5 h: 16.2%

## COc1cccc(NC(=O)CN2CCN(S(C)(=O)=O)CC2)c1
  cytotoxicity at 70.5 h: -8.85%

## CC(C)CN1CCc2[nH]cnc2C12CCN(C(=O)c1cncn1C)CC2
  cytotoxicity at 70.5 h: -5.88%

## N#Cc1cccc(N2CCC3(CCC(=O)N(CCCO)C3)CC2)n1
  cytotoxicity at 70.5 h: -9.82%

## CC(C)NC(=O)[C@@H]1C[C@@H](N)CN1C(=O)c1cc2c([nH]c1=O)CCCC2
  cytotoxicity at 70.5 h: -6.99%

## CC(C)N1CCC[C@H]1C(=O)NCC1CCN(c2cnn(C)c(=O)c2)CC1
  cytotoxicity at 70.5 h: -8.1%

## CCOC(=O)c1c(NC(=O)C2CCN(C(C)=O)CC2)sc(C)c1CC
  cytotoxicity at 70.5 h: -6.22%

## Cc1ccc2nc(C)cc(C(=O)NC(C)c3nnn[nH]3)c2c1 (configuration not stated)
  cytotoxicity at 70.5 h: -0.653%

## CCn1nc(C)c(NC(=O)CN(C)C(C)c2ccon2)c1C (configuration not stated)
  cytotoxicity at 70.5 h: 3.79%

## CN1CCN(Cc2ccc(-c3ccc4[nH]ccc4c3)nc2)CC1
  cytotoxicity at 70.5 h: -15.3%

## Cc1noc(C)c1CN(C)C(=O)c1n[nH]c(N)c1-c1ccccc1
  cytotoxicity at 70.5 h: -5.4%

## Cc1cnccc1-c1cc(NCCO)nc2[nH]ccc12
  cytotoxicity at 70.5 h: 14.2%

## CCNc1c(NC(=O)NC(C)C)c(=O)oc2ccccc12
  cytotoxicity at 70.5 h: -8.94%

## Cc1c[nH]c(CN(C)C(=O)c2ccc(CSc3nnc[nH]3)o2)n1
  cytotoxicity at 70.5 h: -1.05%

## CNS(=O)(=O)c1cc(C)c2[nH]c(=O)cc(C)c2c1
  cytotoxicity at 70.5 h: -16.4%

## Cc1ccc(CCN[C@@H]2c3ccccc3C3(CCNCC3)[C@H]2O)s1
  cytotoxicity at 70.5 h: -2.07%

## CN(C)C(=O)c1ccc2c(c1)N(C)C(CC(=O)NCc1ncc[nH]1)CO2 (configuration not stated)
  cytotoxicity at 70.5 h: -5.15%

## O=C(NCc1ccco1)c1ccc(N2CCOCC2)cc1
  cytotoxicity at 70.5 h: 0.191%

## Cc1ccc2[nH]c(C(=O)NCCCn3ccnn3)c(C)c2c1
  cytotoxicity at 70.5 h: 22.6%

## COCCN(Cc1cnn(C)c1)c1nc(C)nc2sccc12
  cytotoxicity at 70.5 h: 4.75%

## Cc1ccc(CS(=O)(=O)NCc2ccco2)cc1
  cytotoxicity at 70.5 h: -4.19%

## O=S(=O)(Cc1ccc(F)cc1)NCc1ccco1
  cytotoxicity at 70.5 h: -2.47%

## Cc1cc(=O)[nH]c(=O)n1-c1ccccc1Br
  cytotoxicity at 70.5 h: -2.81%

## Cn1c(N2CCOCC2)nc2cc(C(=O)N[C@@H]3CC[C@@H](N)C3)ccc21
  cytotoxicity at 70.5 h: -5.03%

## COc1ccc([C@@H]2C[C@H](NC(C)=O)C[C@H](Cc3ccccc3)O2)cn1
  cytotoxicity at 70.5 h: -6.79%

## CC(=O)Nc1ccc(Cl)c(C(=O)N(C)C(C)c2ccncn2)c1 (configuration not stated)
  cytotoxicity at 70.5 h: -0.237%

## CC(=O)NCCNc1nc(C2CCCC2)nc2c1cnn2C
  cytotoxicity at 70.5 h: -5.79%

## O=C(NCCN1CCCCC1)c1cccc(Cl)c1Cl
  cytotoxicity at 70.5 h: -8.61%

## CSCCC(=O)NCc1cc2n(n1)CCN(C(=O)N(C)C)C2
  cytotoxicity at 70.5 h: -8.07%

## O[C@]12CCNC[C@H]1CN(c1nccc3ccccc13)CC2
  cytotoxicity at 70.5 h: 22.6%

## O=C(c1scc2c1OCCO2)N1CCOC(Cc2ccc(F)cc2)C1 (configuration not stated)
  cytotoxicity at 70.5 h: -0.136%

## O=C(c1ccc(Br)o1)N1CCN(Cc2ccc(F)cc2)CC1
  cytotoxicity at 70.5 h: 7.95%

## CC(C)N1CCCn2nc(C(=O)NCCc3c[nH]cn3)cc2C1
  cytotoxicity at 70.5 h: 19.8%

## CN1CCCN(CC(=O)N2CCc3[nH]c(-c4ccccc4)nc3C2)CC1
  cytotoxicity at 70.5 h: -1.3%

## O=S(=O)(c1c(N2CCCC2)ccc2nonc12)N1CCCC1
  cytotoxicity at 70.5 h: -1.28%

## Cc1nc(NC(=O)C(C)N2CCN(c3ccccc3F)CC2)sc1C (configuration not stated)
  cytotoxicity at 70.5 h: -2.47%

## CCOC(=O)CC1CCCCN1C(=O)c1cc(C)oc1C (configuration not stated)
  cytotoxicity at 70.5 h: 3.76%

## COCc1cc(CNC(=O)c2cccc3c2OCC3)n[nH]1
  cytotoxicity at 70.5 h: -5.24%

## Cc1cccc2sc(NC(=O)CN3CCC(C)CC3)nc12
  cytotoxicity at 70.5 h: -7.07%

## Cc1cc(-c2nn3c(C)nnc3s2)n[nH]1
  cytotoxicity at 70.5 h: 20%

## Cc1cc(C(=O)NCCC(C)C)ccc1NS(C)(=O)=O
  cytotoxicity at 70.5 h: -11%

## Cc1ccccc1N1CCCN(C(=O)c2nn(C)cc2Cl)CC1
  cytotoxicity at 70.5 h: 27.7%

## CC(=O)Nc1ncc(S(=O)(=O)N2CCCC(C)C2)s1 (configuration not stated)
  cytotoxicity at 70.5 h: -3.6%

## CC(=O)Nc1ncc(S(=O)(=O)N2CCOCC2)s1
  cytotoxicity at 70.5 h: -1.73%

## Cc1cc(C)n(CCCN(C)c2cc(N(C)C)ncn2)n1
  cytotoxicity at 70.5 h: -7.08%

## COCC(Nc1ncnc2sc(C)c(C)c12)c1ccnn1C (configuration not stated)
  cytotoxicity at 70.5 h: -4.15%

## Cc1cccc(OCCN2CCN(Cc3noc(C)n3)CC2)c1
  cytotoxicity at 70.5 h: -2.75%

## Cc1nc(CN2CCN(CCOc3ccc(C(C)C)c(C)c3)CC2)no1
  cytotoxicity at 70.5 h: 8.91%

## CCOc1ccc2ccccc2c1CNCC1CCNCC1
  cytotoxicity at 70.5 h: 9.2%

## Cc1ccc(OCCCSC2=NCCN2)cc1
  cytotoxicity at 70.5 h: -3.22%
